Values quoted from earlier work, collected in patent US6907319B2, “System for the application of pesticides” (Syngenta Crop Protection, Inc., priority 2000, dated 2005).

Legend:
[1] = increasing the soil temperature
potato = details: cool temperatures (13° C. day/4° C. night) compared with 24° C./13° C.

Compound	reduction of the maximum phytotoxicity threshold [1]	other results
CCNc1nc(Cl)nc(NC(C)C)n1 [atrazine]	3 fold	–
O=C(O)CNCP(=O)(O)O [glyphosate]	–	phytotoxicity of glyphosate/ha, less than at 24° C./13° C. (potato): 50%
Nc1c(Cl)c(Cl)nc(C(=O)O)c1Cl [picloram]	1.5 fold	–
Cc1[nH]c(=O)n(C(C)(C)C)c(=O)c1Cl [terbacil]	2.5 fold	–
COC(=O)c1sccc1S(=O)(=O)NC(=O)Nc1nc(C)nc(OC)n1 [thiameturon-methyl]	–	activity with increasing rain (increasing of rain): reduces the activity; performance with increasing temperature and humidity (increasing temperature and humidity): markedly improved
